Data on 15 molecules can be found in US12187713B2, “Immunomodulators, compositions and methods thereof” (Betta Pharmaceuticals Co., Ltd, priority 2019, dated 2025).

SMILES strings stand for the structures.

The IC50 is the midpoint of a concentration-inhibition curve. Low readings indicate inhibition by little substance, high ones a need for much substance.

Chain of PD-1/PD-L1 (Q9NZQ7 19-238): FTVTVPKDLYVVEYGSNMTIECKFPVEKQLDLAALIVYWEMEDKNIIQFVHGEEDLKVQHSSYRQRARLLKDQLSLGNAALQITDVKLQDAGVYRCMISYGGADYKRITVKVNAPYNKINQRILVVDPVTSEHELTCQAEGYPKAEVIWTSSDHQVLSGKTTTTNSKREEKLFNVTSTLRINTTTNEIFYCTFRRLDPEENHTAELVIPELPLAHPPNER

One assay has as its target PD-1/PD-L1 (Homo sapiens (Human), UniProt Q9NZQ7). Briefly: PD-1/PD-L1 Binding Assay (Alphascreen). Particulars: numeric values. A digest of the protocol: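 PD-1/PD-L1 binding detected by anti-6×His acceptor and streptavidin donor beads after 120 min in the dark at 25 °C. Beforehand, the two proteins were incubated 15 min at 25 °C with inhibitor at 0.015–300 nM (1% DMSO). IC50 comes from a log concentration–response curve.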
Consider `Cc1c(-c2nc3ccc(CN4CC(C)(C)C4)cc3o2)cccc1-c1cccc(-c2nc3cc(CN4CCC[C@H]4C(=O)O)c(OC(F)F)cc3o2)c1C` [Example 109, ((6-(difluoromethoxy)-2-(3′-(6-((3,3-dimethylazetidin-1-yl)methyl)benzo[d]oxazol-2-yl)-2,2′-dimethyl-[1,1′-biphenyl]-3-yl)benzo[d]oxazol-5-yl)methyl)-L-proline], for which the IC50 worked out at 1.6 nM.

The molecule `Cc1c(-c2nc3cc(CN4CCC[C@H]4C(=O)O)c(OC(F)F)cc3o2)cccc1-c1cccc(-c2nc3cc(CN4CC(C)(C)C4)cnc3o2)c1C` [Example 113, ((6-(difluoromethoxy)-2-(3′-(6-((3,3-dimethylazetidin-1-yl)methyl)oxazolo[5,4-b]pyridin-2-yl)-2,2′-dimethyl-[1,1′-biphenyl]-3-yl)benzo[d]oxazol-5-yl)methyl)-L-proline] showed an IC50 of 0.5 nM.

In turn, `Cc1c(-c2nc3cc(CN4CCC[C@H]4C(=O)O)c(OC(F)F)cc3o2)cccc1-c1cccc(-c2nc3cc(CN4CCCC4)c(F)c(F)c3o2)c1C#N` [Example 118, ((2-(2′-cyano-3′-(6,7-difluoro-5-(pyrrolidin-1-ylmethyl)benzo[d]oxazol-2-yl)-2-methyl-[1,1′-biphenyl]-3-yl)-6-(difluoromethoxy)benzo[d]oxazol-5-yl)methyl)-L-proline] registered an IC50 of 78 nM.

`Cc1c(-c2nc3cc(CNCCO)c(OCc4ccc(C#N)nc4)cc3o2)cccc1-c1cccc(-c2nc3cc(CN4CCC[C@H]4C(=O)O)c(OC(F)F)cc3o2)c1C` [Example 119, ((2-(3′-(6-((6-cyanopyridin-3-yl)methoxy)-5-(((2-hydroxyethyl)amino)methyl)benzo[d]oxazol-2-yl)-2,2′-dimethyl-[1,1′-biphenyl]-3-yl)-6-(difluoromethoxy)benzo[d]oxazol-5-yl)methyl)-L-proline] showed an IC50 of 1.9 nM.

The molecule `Cc1c(-c2nc3cc(CNCCO)c(OCc4cncc(C#N)c4)cc3o2)cccc1-c1cccc(-c2nc3cc(CN4CCC[C@H]4C(=O)O)c(OC(F)F)cc3o2)c1C` [Example 120, ((2-(3′-(6-((5-cyanopyridin-3-yl)methoxy)-5-(((2-hydroxyethyl)amino)methyl)benzo[d]oxazol-2-yl)-2,2′-dimethyl-[1,1′-biphenyl]-3-yl)-6-(difluoromethoxy)benzo[d]oxazol-5-yl)methyl)-L-proline] gave an IC50 of 1.1 nM.

In turn, `Cc1c(-c2nc3cc(CNCCO)c(OCc4cncc(S(C)(=O)=O)c4)cc3o2)cccc1-c1cccc(-c2nc3cc(CN4CCC[C@H]4C(=O)O)c(OC(F)F)cc3o2)c1C` [Example 121, ((6-(difluoromethoxy)-2-(3′-(5-(((2-hydroxyethyl)amino)methyl)-6-((5-(methylsulfonyl)pyridin-3-yl)methoxy)benzo[d]oxazol-2-yl)-2,2′-dimethyl-[1,1′-biphenyl]-3-yl)benzo[d]oxazol-5-yl)methyl)-L-proline] returned an IC50 of 0.6 nM.

Still in this assay, the particulars now being: range symbols.
`Cc1c(-c2nc3cc(CN4CCC4CO)ccc3o2)cccc1-c1cccc(-c2nc3cc(CN4CCC[C@H]4C(=O)O)c(OC(F)F)cc3o2)c1C` (stereo partly drawn) [Example 105, ((6-(difluoromethoxy)-2-(3′-(5-((2-(hydroxymethyl)azetidin-1-yl)methyl)benzo[d]oxazol-2-yl)-2,2′-dimethyl-[1,1′-biphenyl]-3-yl)benzo[d]oxazol-5-yl)methyl)-L-proline] registered an IC50 of 0.1 to 5 nM.

In the case of `Cc1c(-c2nc3cc(CN4CCC45COC5)ccc3o2)cccc1-c1cccc(-c2nc3cc(CN4CCC[C@H]4C(=O)O)c(OC(F)F)cc3o2)c1C` [Example 106, ((2-(3′-(5-((6-oxa-1-azaspiro[3.3]heptan-1-yl)methyl)benzo[d]oxazol-2-yl)-2,2′-dimethyl-[1,1′-biphenyl]-3-yl)-6-(difluoromethoxy)benzo[d]oxazol-5-yl)methyl)-L-proline], the IC50 lay in the range of 0.1 to 5 nM.

For `Cc1c(-c2nc3cc(CN4CCC45CCC5)ccc3o2)cccc1-c1cccc(-c2nc3cc(CN4CCC[C@H]4C(=O)O)c(OC(F)F)cc3o2)c1C` [Example 107, ((2-(3′-(5-((1-azaspiro[3.3]heptan-1-yl)methyl)benzo[d]oxazol-2-yl)-2,2′-dimethyl-[1,1′-biphenyl]-3-yl)-6-(difluoromethoxy)benzo[d]oxazol-5-yl)methyl)-L-proline], the IC50 was in the range of 0.1 to 5 nM.

Molecule `Cc1c(-c2nc3cc(CN4CCC[C@H]4C(=O)O)c(OC(F)F)cc3o2)cccc1-c1cccc(-c2nc3ccc(CN4CC(C)(C)C4)cc3o2)c1Cl` [Example 110, ((2-(2′-chloro-3′-(6-((3,3-dimethylazetidin-1-yl)methyl)benzo[d]oxazol-2-yl)-2-methyl-[1,1′-biphenyl]-3-yl)-6-(difluoromethoxy)benzo[d]oxazol-5-yl)methyl)-L-proline] returned an IC50 of 0.1 to 5 nM.

Take `Cc1c(-c2nc3cc(CN4CCC[C@@H]4C(=O)O)c(OC(F)F)cc3o2)cccc1-c1cccc(-c2nc3ccc(CN4CC(C)(C)C4)cc3o2)c1Cl` [Example 111, ((2-(2′-chloro-3′-(6-((3,3-dimethylazetidin-1-yl)methyl)benzo[d]oxazol-2-yl)-2-methyl-[1,1′-biphenyl]-3-yl)-6-(difluoromethoxy)benzo[d]oxazol-5-yl)methyl)-D-proline]: the IC50 lay in the range of 0.1 to 5 nM.

For `Cc1c(-c2nc3cc(CN4CCC[C@H]4C(=O)O)c(OC(F)F)cc3o2)cccc1-c1cccc(-c2nc3cc(CN4CCCC4)cnc3o2)c1C` [Example 112, ((6-(difluoromethoxy)-2-(2,2′-dimethyl-3′-(6-(pyrrolidin-1-ylmethyl)oxazolo[5,4-b]pyridin-2-yl)-[1,1′-biphenyl]-3-yl)benzo[d]oxazol-5-yl)methyl)-L-proline], the IC50 lay in the range of 0.1 to 5 nM.

Molecule `Cc1c(-c2nc3cc(CN4CCC[C@H]4C(=O)O)c(OC(F)F)cc3o2)cccc1-c1cccc(-c2nc3cc(CNCC4CCC(=O)N4)cnc3o2)c1C` (stereo partly drawn) [Example 115, ((6-(difluoromethoxy)-2-(2,2′-dimethyl-3′-(6-((((5-oxopyrrolidin-2-yl)methyl)amino)methyl)oxazolo[5,4-b]pyridin-2-yl)-[1,1′-biphenyl]-3-yl)benzo[d]oxazol-5-yl)methyl)-L-proline] showed an IC50 of 0.1 to 5 nM.

In the case of `Cc1c(-c2nc3cc(CN4CCC[C@H]4C(=O)O)c(OC(F)F)cc3o2)cccc1-c1cccc(-c2nc3cc(CN4CC(N(C)C)C4)cnc3o2)c1C` [Example 116, ((6-(difluoromethoxy)-2-(3′-(6-((3-(dimethylamino)azetidin-1-yl)methyl)oxazolo [5,4-b]pyridin-2-yl)-2,2′-dimethyl-[1,1′-biphenyl]-3-yl)benzo[d]oxazol-5-yl)methyl)-L-proline], the IC50 lay in the range of 0.1 to 5 nM.

As for `CCNCc1cc2nc(-c3cccc(-c4cccc(-c5nc6cc(CN7CCC[C@H]7C(=O)O)c(OC(F)F)cc6o5)c4C)c3C)oc2cc1OCc1cncc(S(C)(=O)=O)c1` [Example 122, ((6-(difluoromethoxy)-2-(3′-(5-((ethylamino)methyl)-6-((5-(methylsulfonyl)pyridin-3-yl)methoxy)benzo[d]oxazol-2-yl)-2,2′-dimethyl-[1,1′-biphenyl]-3-yl)benzo[d]oxazol-5-yl)methyl)-L-proline], the IC50 lay in the range of 0.1 to 5 nM.
